Paper PMC6337588, “Multi-Target Cinnamic Acids for Oxidative Stress and Inflammation: Design, Synthesis, Biological Evaluation and Modeling Studies” (Molecules, 2018)
Values joined by “and” are separate entries in the source; they are usually repeats but may differ in a detail not shown here. Equal values may be shown once.

Tested on: not listed separately
Experiment: Experimental lipophilicity as RM values by reversed phase TLC (RPTLC)
Assay type: physicochemical
Conditions: methanol/water 77/23 with 0.1% acetic acid, 24 °C, average of at least 5 measurements
Description: Lipophilicity is a physicochemical property correlated with the biological activity. Lipophilicity influences ligand-target binding interactions, solubility, absorption, distribution, bioavailability, metabolism and elimination (ADME) and toxicological outcomes. The lipophilicity of the novel cinnamic acids was experimentally measured as RM values using a reverse phase thin layer chromatography (RPTLC) method. This is acknowledged as a reliable, fast and convenient approach for expressing lipophilicity (Table 1). RM relates to the thermodynamic Rf value in a logarithmic form. Bate-Smith and Westall firstly determined lipophilicity as RM values in 1950 [31]. The Br-substituted derivatives 1i–7i are more lipophilic than the OH-substituted ones 1ii–7ii which can be easily explained by their structural characteristics.
Reversed phase TLC (RPTLC) was performed on silica gel plates impregnated with 55% (v/v) liquid paraffin in light petroleum ether. The mobile phase was a methanol/water mixture (77/23, v/v) containing 0.1% of acetic acid. The plates were developed in closed chromatography tanks saturated with the mobile phase at 24 °C. Spots were detected under UV light. RM values were determined from the corresponding Rf values (from five individual measurements) using the equation RM = log[(1/Rf) − 1] [17, 18, 28].

RM (±SD)	Compound
0.061 (0.007)	O=C(O)C(=Cc1ccc(OCc2ccc(Br)cc2)cc1)c1ccc(O)cc1 [Compound 2ii, 3-(4-((4-Bromobenzyl)oxy)phenyl)-2-(4-hydroxyphenyl)acrylic acid]
0.582 (0.037)	CN(C)c1ccc(C=CC=C(C(=O)O)c2ccc(Br)cc2)cc1 [Compound 3i, 2-(4-Bromophenyl)-5-(4-(dimethylamino)phenyl)penta-2,4-dienoic acid]

Biological target: T1, soybean lipoxygenase (Glycine max, UniProt P08170)
T1 construct: purchased Sigma Chemical, Co. (St. Louis)
T1 sequence (P08170 1-839): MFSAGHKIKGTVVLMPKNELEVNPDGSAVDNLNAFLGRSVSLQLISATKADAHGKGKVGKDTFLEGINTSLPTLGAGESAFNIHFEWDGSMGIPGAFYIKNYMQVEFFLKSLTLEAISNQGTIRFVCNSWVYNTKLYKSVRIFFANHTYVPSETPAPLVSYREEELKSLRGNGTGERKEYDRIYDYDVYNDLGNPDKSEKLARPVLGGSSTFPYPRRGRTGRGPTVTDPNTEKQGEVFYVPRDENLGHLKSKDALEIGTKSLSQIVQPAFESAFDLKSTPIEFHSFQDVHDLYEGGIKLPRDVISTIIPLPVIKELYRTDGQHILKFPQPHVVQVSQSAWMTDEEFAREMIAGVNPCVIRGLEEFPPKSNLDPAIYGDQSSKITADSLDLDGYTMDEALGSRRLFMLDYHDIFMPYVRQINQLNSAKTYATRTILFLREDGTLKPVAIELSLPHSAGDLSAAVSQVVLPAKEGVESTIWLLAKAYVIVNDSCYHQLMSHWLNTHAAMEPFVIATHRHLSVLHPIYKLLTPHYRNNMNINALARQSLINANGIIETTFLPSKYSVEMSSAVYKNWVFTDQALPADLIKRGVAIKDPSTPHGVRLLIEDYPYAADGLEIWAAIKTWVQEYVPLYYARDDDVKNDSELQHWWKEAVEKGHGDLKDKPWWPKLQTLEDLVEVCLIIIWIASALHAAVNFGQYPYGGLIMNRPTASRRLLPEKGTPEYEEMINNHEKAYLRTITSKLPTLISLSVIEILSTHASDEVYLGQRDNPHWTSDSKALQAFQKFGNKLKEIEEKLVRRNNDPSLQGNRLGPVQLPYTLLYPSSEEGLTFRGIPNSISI
Experiment: Soybean lipoxygenase inhibition in vitro
Assay type: biochemical
Conditions: sodium linoleate 0.1 mM, 234 nm, read-out: LOX IC50
Description: Many research groups have used readily obtainable soybean lipoxygenase, which is a homologue of mammalian lipoxygenase and well studied. Due to its availability and its well-characterised crystal structure, soybean LOX was selected to be used in this study.
In vitro study was evaluated as reported previously by our group. The tested compounds were incubated at room temperature with sodium linoleate (0.1 mM) and 0.2 mL of enzyme solution (1/9 × 104 w/v in saline). The method was based to the conversion of sodium linoleate to 13-hydroperoxylinoleic acid at 234 nm. […] In order to determine the IC50 values different concentrations were used.

IC50 [µM]	Compound
77	O=C(O)C(=Cc1ccc(OCc2ccc(Br)cc2)cc1)c1ccc(O)cc1 [Compound 2ii, 3-(4-((4-Bromobenzyl)oxy)phenyl)-2-(4-hydroxyphenyl)acrylic acid]
7.4	CN(C)c1ccc(C=CC=C(C(=O)O)c2ccc(Br)cc2)cc1 [Compound 3i, 2-(4-Bromophenyl)-5-(4-(dimethylamino)phenyl)penta-2,4-dienoic acid]

Tested on: not listed separately
Experiment: Reducing activity of the stable radical DPPH
Assay type: biochemical
Conditions: 50 µM, 20 min
Description: The substituted acids were monitored for the antioxidant activity by the use of the stable 2,2-diphenyl-1-picrylhydrazyl radical (DPPH) at concentration 50 µM and 100 µM after 20 and 60 min (Table 1). In this assay the DPPH radical is reduced by single electron transfer from the antioxidant. Strong antioxidants are the phenoxide anions from phenolic compounds like catechol and derivatives, such as nordihydroguaretic acid (NDGA), the reference compound. The compounds presented medium reducing abilities from 29–61%, due to steric reasons; small differences were found among the compounds with time and concentration. 4-Br-substituted-3 phenyl acetic acid derivatives (Series I) are equipotent to 4-OH-substituted-3 phenyl acetic acid derivatives (Series II). No differences were observed between 4i and 5i and 4ii and 5ii.
To a solution of DPPH in absolute ethanol an equal volume of the compounds dissolved in DMSO was added. The final concentrations of the measured solutions of the novel acids were 50 and 100 µM starting from a stock solution (10 mM) in DMSO. The absorbance was recorded at 517 nm, after 20 and 60 min at room temperature (Table 1).

Compound	RA% 50 µM 20 min [%]
O=C(O)C(=Cc1ccc(OCc2ccc(Br)cc2)cc1)c1ccc(O)cc1 [Compound 2ii, 3-(4-((4-Bromobenzyl)oxy)phenyl)-2-(4-hydroxyphenyl)acrylic acid]	36
CN(C)c1ccc(C=CC=C(C(=O)O)c2ccc(Br)cc2)cc1 [Compound 3i, 2-(4-Bromophenyl)-5-(4-(dimethylamino)phenyl)penta-2,4-dienoic acid]	34

Same assay, conditions: 50 µM, 60 min

Compound	RA% 50 µM 60 min [%]
O=C(O)C(=Cc1ccc(OCc2ccc(Br)cc2)cc1)c1ccc(O)cc1 [Compound 2ii, 3-(4-((4-Bromobenzyl)oxy)phenyl)-2-(4-hydroxyphenyl)acrylic acid]	37
CN(C)c1ccc(C=CC=C(C(=O)O)c2ccc(Br)cc2)cc1 [Compound 3i, 2-(4-Bromophenyl)-5-(4-(dimethylamino)phenyl)penta-2,4-dienoic acid]	37

Same assay, conditions: 100 µM, 20 min

Compound	RA% 100 µM 20 min [%]
O=C(O)C(=Cc1ccc(OCc2ccc(Br)cc2)cc1)c1ccc(O)cc1 [Compound 2ii, 3-(4-((4-Bromobenzyl)oxy)phenyl)-2-(4-hydroxyphenyl)acrylic acid]	43
CN(C)c1ccc(C=CC=C(C(=O)O)c2ccc(Br)cc2)cc1 [Compound 3i, 2-(4-Bromophenyl)-5-(4-(dimethylamino)phenyl)penta-2,4-dienoic acid]	48

Same assay, conditions: 100 µM, 60 min

Compound	RA% 100 µM 60 min [%]
O=C(O)C(=Cc1ccc(OCc2ccc(Br)cc2)cc1)c1ccc(O)cc1 [Compound 2ii, 3-(4-((4-Bromobenzyl)oxy)phenyl)-2-(4-hydroxyphenyl)acrylic acid]	56
CN(C)c1ccc(C=CC=C(C(=O)O)c2ccc(Br)cc2)cc1 [Compound 3i, 2-(4-Bromophenyl)-5-(4-(dimethylamino)phenyl)penta-2,4-dienoic acid]	51

Tested on: not listed separately
Experiment: Competition with DMSO for hydroxyl radicals (Fe3+/ascorbic acid system)
Assay type: biochemical
Conditions: hydroxyl radical scavenging
Description: Competition of the novel substituted acids with DMSO for hydroxyl radicals was measured. Hydroxyl radicals were generated using the Fe^3+/ascorbic acid system and expressed as a percentage inhibition of formaldehyde production in the presence of each compound at 100 μM (Table 2). All the synthesized derivatives strongly scavenge hydroxyl radicals at 100 μM in comparison to the reference compound Trolox.
The hydroxyl radicals generated by the Fe^3+/ascorbic acid system, were detected by the determination of formaldehyde produced from the oxidation of DMSO (Table 2). Trolox was used as reference compound [17, 18, 28].

Compound	HO•% 100 µM [%]
O=C(O)C(=Cc1ccc(OCc2ccc(Br)cc2)cc1)c1ccc(O)cc1 [Compound 2ii, 3-(4-((4-Bromobenzyl)oxy)phenyl)-2-(4-hydroxyphenyl)acrylic acid]	99
CN(C)c1ccc(C=CC=C(C(=O)O)c2ccc(Br)cc2)cc1 [Compound 3i, 2-(4-Bromophenyl)-5-(4-(dimethylamino)phenyl)penta-2,4-dienoic acid]	100

Tested on: not listed separately
Experiment: ABTS+• decolorization assay
Assay type: biochemical
Conditions: 1 min, 734 nm
Description: No role for lipophilicity was found. Oxidation of ABTS with potassium persulfate generates directly the ABTS radical cation (ABTS^+•) with no involvement of an intermediary radical, which is then reduced upon adding electron-donating antioxidants.
In order to produce the ABTS radical cation (ABTS^+•), ABTS stock solution in water (7 mM) was mixed with potassium persulfate (2.45 mM) and left in the dark at room temperature for 12–16 h before use. Our published experimental technique was used (Table 2). The results are recorded after 1 min of the mixing solutions at 734 nm. The results were compared to the appropriate standard inhibitor Trolox.

Compound	ABTS+•% 100 µM
O=C(O)C(=Cc1ccc(OCc2ccc(Br)cc2)cc1)c1ccc(O)cc1 [Compound 2ii, 3-(4-((4-Bromobenzyl)oxy)phenyl)-2-(4-hydroxyphenyl)acrylic acid]	47%
CN(C)c1ccc(C=CC=C(C(=O)O)c2ccc(Br)cc2)cc1 [Compound 3i, 2-(4-Bromophenyl)-5-(4-(dimethylamino)phenyl)penta-2,4-dienoic acid]	83.4% and 83%

Tested on: not listed separately
Experiment: Inhibition of linoleic acid peroxidation (AAPH)
Assay type: biochemical
Conditions: anti-lipid peroxidation, 50 µM
Description: We also used water-soluble 2,2′-[…](2-amidinopropane) hydrochloride (AAPH) for the generation of free radicals. AAPH has been extensively used as a clean and controllable source of thermally produced alkylperoxyl free radicals. The peroxyl radicals produced by the action of AAPH show total similarity to cellular activities such as lipid peroxidation. […] It seems that the presence of 3,5-di-tert-butyl-group greatly enhances protection against lipid peroxidation (6i/ii and 7i/ii followed by 3ii and 5ii). The lipid peroxidation inhibitory activity seems to be concentration dependent.
2,2’-Azobis(2-amidinopropane) dihydrochloride (AAPH) was used as a free radical initiator to start the oxidation reaction. The method was based on the production of conjugated diene hydroperoxide by oxidation of linoleic acid at 234 nm expressed as an increased absorption. Trolox was used as reference compound (93%) (Table 2).

Compound	AAPH% 50 µM [%]
O=C(O)C(=Cc1ccc(OCc2ccc(Br)cc2)cc1)c1ccc(O)cc1 [Compound 2ii, 3-(4-((4-Bromobenzyl)oxy)phenyl)-2-(4-hydroxyphenyl)acrylic acid]	49
CN(C)c1ccc(C=CC=C(C(=O)O)c2ccc(Br)cc2)cc1 [Compound 3i, 2-(4-Bromophenyl)-5-(4-(dimethylamino)phenyl)penta-2,4-dienoic acid]	43

Same assay, conditions: anti-lipid peroxidation, 100 µM

Compound	AAPH% 100 µM [%]
O=C(O)C(=Cc1ccc(OCc2ccc(Br)cc2)cc1)c1ccc(O)cc1 [Compound 2ii, 3-(4-((4-Bromobenzyl)oxy)phenyl)-2-(4-hydroxyphenyl)acrylic acid]	87
CN(C)c1ccc(C=CC=C(C(=O)O)c2ccc(Br)cc2)cc1 [Compound 3i, 2-(4-Bromophenyl)-5-(4-(dimethylamino)phenyl)penta-2,4-dienoic acid]	88

Tested on: not given
Experiment: not given
Conditions: not given

melting point [°C]	Compound
120 to 121	CN(C)c1ccc(C=CC=C(C(=O)O)c2ccc(Br)cc2)cc1 [Compound 3i, 2-(4-Bromophenyl)-5-(4-(dimethylamino)phenyl)penta-2,4-dienoic acid]
